Results reported in ChEMBL document CHEMBL1151704, “Nicotinic acid receptor agonists” (J Med Chem, 2008).

How the values were obtained:
Rattus norvegicus = species on record: Rattus norvegicus; assay: Reduction of plasma free fatty acid in Sprague-Dawley rat; type: functional
[1] = Therapeutic index, ratio of ED50 for plasma free fatty acid in Sprague-Dawley rat to ED50 for vasodilation in mouse; conditions: read-out: Ratio ED50
[2] = biological target: Hydroxycarboxylic acid receptor 2 (Homo sapiens, UniProt Q8TDS4); assay: Activity at GPR109a assessed as inhibition of forskolin-stimulated cAMP production; type: functional
[3] = biological target: Hydroxycarboxylic acid receptor 3 (Homo sapiens, UniProt P49019); assay: Activity at GPR109b assessed as inhibition of forskolin-stimulated cAMP production; type: functional
Chain of Hydroxycarboxylic acid receptor 3 (P49019 whole entry): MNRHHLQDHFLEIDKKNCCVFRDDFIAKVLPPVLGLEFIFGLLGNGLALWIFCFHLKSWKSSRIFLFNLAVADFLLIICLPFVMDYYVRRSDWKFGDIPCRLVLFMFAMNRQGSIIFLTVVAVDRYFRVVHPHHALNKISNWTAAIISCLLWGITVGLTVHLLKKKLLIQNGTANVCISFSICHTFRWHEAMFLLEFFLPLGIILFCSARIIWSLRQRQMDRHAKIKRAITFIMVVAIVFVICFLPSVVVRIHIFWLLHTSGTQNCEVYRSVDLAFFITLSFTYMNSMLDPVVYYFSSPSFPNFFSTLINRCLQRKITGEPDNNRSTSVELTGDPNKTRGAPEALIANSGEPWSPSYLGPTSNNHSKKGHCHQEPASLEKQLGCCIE

Chain of Hydroxycarboxylic acid receptor 2 (Q8TDS4 whole entry): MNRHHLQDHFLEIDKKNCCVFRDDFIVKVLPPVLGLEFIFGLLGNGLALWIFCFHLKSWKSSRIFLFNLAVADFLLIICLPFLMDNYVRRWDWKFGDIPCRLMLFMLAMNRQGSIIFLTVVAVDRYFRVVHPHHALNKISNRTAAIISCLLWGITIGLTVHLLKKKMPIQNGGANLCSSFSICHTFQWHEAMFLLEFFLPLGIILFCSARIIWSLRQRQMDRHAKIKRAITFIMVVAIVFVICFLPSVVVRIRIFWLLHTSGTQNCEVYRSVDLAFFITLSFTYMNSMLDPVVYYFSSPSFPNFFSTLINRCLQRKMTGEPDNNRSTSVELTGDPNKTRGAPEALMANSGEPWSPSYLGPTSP

EC50 [2] [nM]	IC50 [2] [nM]	IC50 [3] [nM]	Compound	ED50 (Rattus norvegicus) [mg/kg]	selectivity ratio [1]
			O=C(CCc1nc(-c2ccc(O)cn2)no1)Nc1ccccc1C(=O)O	9	> 70
400			CC(C)n1nnc2cc(C(=O)O)ccc21		
			O=C(CCc1nc(-c2ccc(O)cc2)no1)Nc1ccccc1C(=O)O	9	> 70
	500	3000	CC1(c2ccccc2)OC(C(=O)O)=CC1=O (configuration not stated) [ACIFRAN]		
